# Laboratory results from patent US20240122974A1, “TREATMENT OF MYOPIA” (University of Utah Research Foundation, priority 2021, published 2024).
# Like-named read-outs stand apart in the source and are kept apart here.
# How the values were obtained:
# lysyl oxidase (LOX) [1] = target: T1, lysyl oxidase (LOX) (Homo sapiens, UniProt P28300)
# Experimental: To examine LOX activity in normal corneal cells with copper perchlorate and to compare activity with copper sulfate, cultured corneal stroma cells from normal corneas (n=3 each) in 10% fetal bovine serum (FBS) DMEM were either exposed to copper sulfate or copper perchlorate in BSS then filtered through a 0.25 μm filter. Conditioned culture medium underwent a peroxidase-coupled fluorometric activity assay for LOX using Amplex red. As a parallel assay, we added 500 uM aminopropionitrile (BAPN) which can diminish LOX activity completely. The fluorescence of oxidized Amplex red was recorded every 10 minutes using fluorescence plate reader. After subtracting the background fluorescence, the fluorescence intensity was plotted against the incubation time (FIG. 1).
# Target sequence in this assay (P28300 169-417): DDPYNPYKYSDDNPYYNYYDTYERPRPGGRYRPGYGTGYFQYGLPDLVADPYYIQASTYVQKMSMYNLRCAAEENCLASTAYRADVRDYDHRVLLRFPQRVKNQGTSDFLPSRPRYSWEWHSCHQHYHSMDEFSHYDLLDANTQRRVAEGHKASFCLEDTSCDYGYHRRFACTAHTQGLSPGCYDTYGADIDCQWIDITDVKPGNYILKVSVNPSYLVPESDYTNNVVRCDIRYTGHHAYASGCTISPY
# [2] = system: sclera of guinea pig pups; details: 0.08 mg/mL copper perchlorate hexahydrate eye drops twice a day, 6-8 weeks, n=5; untreated sclera 3.9×10^−4; p=0.036
# Experimental: Lysyl oxidase converts lysine to allysine, and conjugates it to lysine or hydroxylysine spontaneously, becoming lysinonorleucine (LNL), an established biomarker of collagen crosslinking. […] After 6 weeks the scleras were dissected and analyzed for LNL content using mass spectroscopy (LC-MS). Semi-quantitative mass spectral analysis was performed using a Sciex 6500 Q-Trap (Sciex, Framingham, MA).
# [3] = system: sclera of guinea pig pups; details: 0.08 mg/mL copper perchlorate hexahydrate eye drops twice a day, 8 weeks, n=3, vs untreated sclera, FIG. 3
# Experimental: After eight weeks the sclera was dissected for creep compliance testing. Compliance was tested using an Instrong 5943 Mechanical Testing system with custom grips and a 5 N Futek load cell. Each of the six specimens were loaded to 0.005 kgf, corresponding to an equivalent pressure of 12.0-16.6 mmHg depending on specimen dimensions.
# [4] = system: genetic model of guinea pig myopia; details: 0.22 mg/ml once a day
# Experimental: 0.22 mg/ml copper perchlorate was administered once a day for approximately 3 months to right eye only. The cycloplegic refraction was measured biweekly by a masked pediatric ophthalmologist.
# lysyl oxidase (LOX) [5] = target: T1, lysyl oxidase (LOX); details: normal sclera cells, FIG. 8
# Target sequence in this assay (P28300 169-417, species assumed): as the sequence (P28300 169-417) above
# [6] = system: spontaneous myopic albino guinea pigs; experiment: Spontaneous myopic progression in albino guinea pig pups; details: 0.22 mg/mL twice a day
# Experimental: Spontaneous myopic albino guinea pigs were used as a model of pediatric myopia. […] Pups of albino guinea pigs were used as a pediatric model starting at age 4-7 days. In this group of n=5 pups, all left eyes were untreated (internal control). The other eye (right eye) was treated with 0.22 mg/mL copper perchlorate hexahydrate twice a day. Treatment started at approximately 1 week of age and continued for approximately 2 months. Measurements were taken between 5-7 days of age (baseline-no treatment) and then biweekly. We examined refractive error by streak retinoscopy after dilation, and axial length by Lenstar biometry (Haag-Streit). Cycloplegic refractive error and cornea inflammation was measured by a masked pediatric ophthalmologist.
# [7] = system: genetic model of guinea pig myopia; experiment: Genetic model of guinea pig myopia, 0.35 mg/ml eye drops twice a day
# Experimental: Copper perchlorate was administered at 0.35 mg/ml to guinea pigs.
smiles,measurement,setting,value
"O.O.O.O.O.O.[Cu+2].[O-][Cl+3]([O-])([O-])[O-].[O-][Cl+3]([O-])([O-])[O-] [copper perchlorate, copper (II) perchlorate hexahydrate]",LOX activity compared with the same molar concentration of copper sulfate,lysyl oxidase (LOX) [1]; concentrations as low as 100 nM,increased LOX activity more than the same molar concentration of copper sulfate
same,induction of LOX activity compared with copper sulfate,"lysyl oxidase (LOX) [1]; keratoconic human cornea stroma cells, concentration as low as 100 nM, FIG. 1B",higher induction of LOX activity than copper sulfate
same,LOX enzyme activity,"lysyl oxidase (LOX) [1]; normal corneal stroma cells, conditioned culture medium, FIG. 1a",dramatically increased LOX enzyme activity in a dose response manner
same,LNL response in treated sclera,[2],0.00069 µg/mg
same,scleral creep compliance,[3],decreased creep compliance
same,more myopia developed in untreated left eyes than in treated right eyes (change from baseline),[4]; Day 81,2.27 diopters
same,"slope analysis: refractive error decrease, untreated left eye more than treated right eye","[4]; about 3 months, right eye only, p=0.0189",0.027(sd=0.011) per day
same,LOX enzyme activity,lysyl oxidase (LOX) [5],dramatically increased LOX enzyme activity in a dose response manner
same,"axial length, treated eye (OD) compared to control eye (OS)",[6]; FIG. 5,trend of reducing
same,"vitreous chamber depth, treated eye (OD) compared to control eye (OS)",[6]; FIG. 5,trend of reducing
same,clinical observations of toxicity or discoloration of corneas,"[6]; about 2 months, topical to right eye",no toxicity or discoloration
same,slowing of myopic progression in refractive error,"[6]; within 9 weeks of treatment, treated vs control eye, n=5",48%
same,"myopia at the end of the experiment, treated versus control eyes",[7]; n=5,significantly less myopic
same,"axial elongation, treated versus control eye","[7]; n=5, p<0.05",significantly reduced
same,"vitreous chamber depth elongation, treated versus control eye","[7]; n=5, p<0.05",significantly reduced
